Legend:
Assay type in all cases: functional
Mus musculus [1] = assay: Antihyperglycemic activity was determined in obese (ob/ob) mice by po administration at a dose of 10 mg/kg
Mus musculus [2] = assay: Antihyperglycemic activity in obese mice(ob/ob) at 1 mg/kg peroral administration; conditions: route oral
Mus musculus [3] = assay: Antihyperglycemic activity in obese mice(ob/ob) at 3 mg/kg peroral administration; conditions: route oral
Mus musculus [4] = assay: In vivo decrease in insulin in obese mice(ob/ob) at 3 mg/kg/day peroral administration for 2 weeks; conditions: route oral
Mus musculus [5] = assay: In vivo decrease in glucose in obese mice(ob/ob) by 0.3 mg/kg/day peroral administration for 2 weeks; conditions: route oral
Mus musculus [6] = assay: In vivo decrease in glucose in obese mice(ob/ob) at 3 mg/kg/day peroral administration for 2 weeks; conditions: route oral
Mus musculus [7] = assay: In vivo decrease in insulin in obese mice(ob/ob) at 1 mg/kg/day peroral administration for 2 weeks; conditions: route oral
Mus musculus [8] = assay: In vivo decrease in glucose in obese mice(ob/ob) at 10 mg/kg/day peroral administration for 2 weeks; conditions: route oral
Mus musculus [9] = assay: In vivo decrease in glucose in obese mice(ob/ob) at 1 mg/kg/day peroral administration for 2 weeks; conditions: route oral
Mus musculus [10] = assay: In vivo decrease in glucose in obese mice(ob/ob) by 1 mg/kg/day peroral administration for 2 weeks; conditions: route oral
Mus musculus [11] = assay: In vivo decrease in insulin in obese mice(ob/ob) at 0.3 mg/kg/day peroral administration for 2 weeks; conditions: route oral
Mus musculus [12] = assay: In vivo decrease in triglyceride in obese mice(ob/ob) by 0.3 mg/kg/day peroral administration for 2 weeks; conditions: route oral
Mus musculus [13] = assay: In vivo decrease in glucose in obese mice(ob/ob) by 10 mg/kg/day peroral administration for 2 weeks; conditions: route oral
Mus musculus [14] = assay: In vivo decrease in insulin in obese mice(ob/ob) at 10 mg/kg/day peroral administration for 2 weeks; conditions: route oral
Mus musculus [15] = assay: In vivo decrease in triglyceride in obese mice(ob/ob) by 3 mg/kg/day peroral administration for 2 weeks; conditions: route oral

`COc1ccc(CNC(=O)c2cc(CC3SC(=O)NC3=O)ccc2OC)cc1OC` (configuration not stated) was tested, and the “Decrease in blood glucose” value (Mus musculus [1]) was 30%.

`COc1ccc(C(=O)NCc2ccc(C(F)(F)F)cc2)cc1CC1SC(=O)NC1=O` (configuration not stated) was tested, and the “Decrease in blood glucose” value (Mus musculus [1]) was 3%.

With `COc1ccc(CCCC2SC(=O)NC2=O)cc1C(=O)NCc1ccc(C(F)(F)F)cc1` (configuration not stated) the “Decrease in blood glucose” value (Mus musculus [2]) was 10%, the “Decrease in blood glucose” value (Mus musculus [3]) was 29% and the “Decrease in blood glucose” value (Mus musculus [1]) was 39%.

`COc1ccc(CC2SC(=O)NC2=O)cc1C(=O)NCc1ccc(C(F)(F)F)cc1` (configuration not stated) gave a Rate of decrease (Mus musculus [4]) of 83%, a Rate of decrease (Mus musculus [5]) of 77% and a Rate of decrease (Mus musculus [6]) of 95%. For the same compound, the “Decrease in blood glucose” value (Mus musculus [2]) was 35%, the Rate of decrease (Mus musculus [7]) was 59% and the Rate of decrease (Mus musculus [8]) was 100%. For the same compound, the Rate of decrease (Mus musculus [9]) was 78%, the Rate of decrease (Mus musculus [10]) was 80% and the Rate of decrease (Mus musculus [11]) was 55%. For the same compound, the Rate of decrease (Mus musculus [12]) was 67%, the “Decrease in blood glucose” value (Mus musculus [3]) was 53% and the Rate of decrease (Mus musculus [13]) was 130%. The Rate of decrease (Mus musculus [14]) was 87%, the Rate of decrease (Mus musculus [15]) was 122% and the “Decrease in blood glucose” value (Mus musculus [1]) was 58%.

`CCOc1ccc(CC2SC(=O)NC2=O)cc1C(=O)NCc1ccc(C(F)(F)F)cc1` (configuration not stated) was tested, and the “Decrease in blood glucose” value (Mus musculus [1]) was 34%.

`O=C1NC(=O)C(Cc2ccc(F)c(C(=O)NCc3ccc(C(F)(F)F)cc3)c2)S1` (configuration not stated) was tested, and the “Decrease in blood glucose” value (Mus musculus [1]) was 50%.

In the case of `CC(C)Oc1ccc(CC2SC(=O)NC2=O)cc1C(=O)NCc1ccc(C(F)(F)F)cc1` (configuration not stated), the “Decrease in blood glucose” value (Mus musculus [1]) is reported as 45%.

For `COc1ccc(C2SC(=O)NC2=O)cc1C(=O)NCc1ccc(C(F)(F)F)cc1` (configuration not stated), the “Decrease in blood glucose” value (Mus musculus [2]) was 27%, the “Decrease in blood glucose” value (Mus musculus [3]) was 36% and the “Decrease in blood glucose” value (Mus musculus [1]) was 48%.

`COc1ccc(CC2SC(=O)NC2=O)cc1C(=O)NCc1ccc(C)cc1` (configuration not stated) was tested, and the “Decrease in blood glucose” value (Mus musculus [1]) was 30%.

For `O=C1NC(=O)C(Cc2ccc(O)c(C(=O)NCc3ccc(C(F)(F)F)cc3)c2)S1` (configuration not stated), the “Decrease in blood glucose” value (Mus musculus [2]) was 7%, the “Decrease in blood glucose” value (Mus musculus [3]) was 12% and the “Decrease in blood glucose” value (Mus musculus [1]) was 34%.

With `COc1ccc(CC2SC(=O)NC2=O)cc1C(=O)NCc1ccccc1` (configuration not stated) the “Decrease in blood glucose” value (Mus musculus [2]) was 19%, the “Decrease in blood glucose” value (Mus musculus [3]) was 31% and the “Decrease in blood glucose” value (Mus musculus [1]) was 37%.

In the case of `COc1ccc(CC2SC(=O)NC2=O)cc1C(=O)Nc1ccc(C(C)(C)C)cc1` (configuration not stated), the “Decrease in blood glucose” value (Mus musculus [1]) is reported as 17%.

With `COc1ccc(CC2SC(=O)NC2=O)cc1C(=O)NCc1ccc(F)cc1` (configuration not stated) the “Decrease in blood glucose” value (Mus musculus [1]) was 28%.

In the case of `COc1ccc(CC2SC(=O)NC2=O)cc1C(=O)NCCc1ccc(C(F)(F)F)cc1` (configuration not stated), the “Decrease in blood glucose” value (Mus musculus [1]) is reported as 3%.

With `COc1ccc(CNC(=O)c2cc(CC3SC(=O)NC3=O)ccc2OC)cc1` (configuration not stated) the “Decrease in blood glucose” value (Mus musculus [1]) was 21%.

With `COc1ccc(CCC2SC(=O)NC2=O)cc1C(=O)NCc1ccc(C(F)(F)F)cc1` (configuration not stated) the “Decrease in blood glucose” value (Mus musculus [2]) was 15%, the “Decrease in blood glucose” value (Mus musculus [3]) was 20% and the “Decrease in blood glucose” value (Mus musculus [1]) was 43%.

For `CCN(Cc1ccc(C(F)(F)F)cc1)C(=O)c1cc(CC2SC(=O)NC2=O)ccc1OC` (configuration not stated), the “Decrease in blood glucose” value (Mus musculus [1]) was 31%.

With `COc1ccc(CC2SC(=O)NC2=O)cc1C(=O)NCc1ccccc1C(F)(F)F` (configuration not stated) the “Decrease in blood glucose” value (Mus musculus [1]) was 4%.

`COc1ccc(CC2SC(=O)NC2=O)cc1C(=O)NCc1cc(C(F)(F)F)cc(C(F)(F)F)c1` (configuration not stated) was tested, and the “Decrease in blood glucose” value (Mus musculus [1]) was 30%.

In the case of `CCc1ccc(CCOc2ccc(CC3SC(=O)NC3=O)cc2)nc1` (configuration not stated) [PIOGLITAZONE], the Rate of decrease (Mus musculus [4]) is reported as 43%, the Rate of decrease (Mus musculus [6]) is reported as 64% and the Rate of decrease (Mus musculus [8]) is reported as 75%. For the same compound, the Rate of decrease (Mus musculus [13]) was 99%, the Rate of decrease (Mus musculus [14]) was 41% and the Rate of decrease (Mus musculus [15]) was 85%. For the same compound, the “Decrease in blood glucose” value (Mus musculus [1]) was 14%.

With `COc1ccc(CC2SC(=O)NC2=O)cc1C(=O)NCc1ccc(N(C)C)cc1` (configuration not stated) the “Decrease in blood glucose” value (Mus musculus [1]) was 12%.

In the case of `COc1ccc(CC2SC(=O)NC2=O)cc1C(=O)NCc1ccc(OC(F)(F)F)cc1` (configuration not stated), the “Decrease in blood glucose” value (Mus musculus [1]) is reported as 34%.

In the case of `Cc1ccc(CC2SC(=O)NC2=O)cc1C(=O)NCc1ccc(C(F)(F)F)cc1` (configuration not stated), the “Decrease in blood glucose” value (Mus musculus [1]) is reported as 16%.

For `COc1ccc(CC2SC(=O)NC2=O)cc1C(=O)NCc1ccc(C(C)(C)C)cc1` (configuration not stated), the “Decrease in blood glucose” value (Mus musculus [1]) was 5%.

In the case of `Cc1c(C)c2c(c(C)c1O)CCC(C)(COc1ccc(CC3SC(=O)NC3=O)cc1)O2` (configuration not stated) [TROGLITAZONE], the “Decrease in blood glucose” value (Mus musculus [1]) is reported as 9%.

For `COc1c(CC2SC(=O)NC2=O)cccc1C(=O)NCc1ccc(C(F)(F)F)cc1` (configuration not stated), the “Decrease in blood glucose” value (Mus musculus [1]) was 0%.

`COc1ccc(CC2SC(=O)NC2=O)cc1C(=O)NCc1cccc(C(F)(F)F)c1` (configuration not stated) was tested, and the “Decrease in blood glucose” value (Mus musculus [1]) was 41%.

Source: ChEMBL document CHEMBL1131942, “(3-substituted benzyl)thiazolidine-2,4-diones as structurally new antihyperglycemic agents” (Bioorg Med Chem Lett, 1999)
